In ChEMBL document CHEMBL1130623, “Novel cytokine release inhibitors. Part II: Steroids” (Bioorg Med Chem Lett, 1998):

Columns and labels:
[1] = species: Homo sapiens; test: (§1) Compound was evaluated for inhibition of Interleukin (IL1-beta) release in human monocytes.; type: functional
[2] = species: Homo sapiens; test: Compound was evaluated for percentage inhibition of Interleukin (IL1-beta) release in human monocytes at a concentration of 1000 nM.; type: functional
[3] = species: Homo sapiens; test: Compound was evaluated for percentage inhibition of Interleukin (IL1-beta) release in human monocytes at a concentration of 3000 nM.; type: functional
[4] = as §1; type: functional, cell-based

| SMILES | IC50 [1] [nM] | inhibition at 1 µM [2] [%] | further results |
| --- | --- | --- | --- |
| CC(=O)Oc1cc2c(c(C)c1OC(C)=O)[C@H]1CC[C@]3(C)[C@@H](OC(C)=O)CC[C@H]3[C@@H]1C=C2 | 150 | – | – |
| C[C@]12CC[C@@H]3c4ccc(O)cc4C=C[C@H]3[C@@H]1CCC2=O | – | 1 | – |
| C[C@]12CC[C@H]3[C@@H](C=CC4=CC(=O)C(O)=C[C@@]43C)[C@@H]1CC[C@@H]2O | 3000 | – | – |
| C[C@]12CC[C@H]3[C@@H](CCC4=CC(=O)C(O)=C[C@@]43C)[C@@H]1CC[C@@H]2O | – | – | inhibition at 3 µM [3]: 36% |
| CC(=O)OC1=C[C@@]2(C)C(=CC1=O)C=C[C@H]1[C@@H]3CC[C@H](OC(C)=O)[C@@]3(C)CC[C@@H]12 | 3000 | – | – |
| CC1=C(O)C(=O)C=C2C1=CC=C1[C@@]2(C)CC[C@@]2(C)[C@@H]3C[C@](C)(C(=O)O)CC[C@]3(C)CC[C@]12C [CELASTROL] | – | – | IC50 [4]: 40 nM |
| C[C@]12CCc3c(ccc4cc(O)ccc34)[C@@H]1CCC2=O [EQUILENIN] | – | 27 | – |
| C[C@]12CC[C@H]3C(=CCc4cc(O)ccc43)[C@@H]1CCC2=O [EQUILIN] | – | -11 | – |
| COC(=O)[C@]1(C)CC[C@]2(C)CC[C@]3(C)C4=CCc5c(cc(OC(C)=O)c(OC(C)=O)c5C)[C@]4(C)CC[C@@]3(C)[C@@H]2C1 [PRISTIMEROL DIACETATE] | 80 | – | – |
